Source: patent US20250360167A1 (Keryx Biopharmaceuticals, Inc., priority 2013, published 2025)

Columns and labels:
[1] = test system: ferritin; experiment: Phase 2 trial (Example 2): ferritin; assay type: in vivo, human
Excerpt: Change in serum phosphorus, ferritin and TSAT levels from baseline to end of treatment after 12 weeks are the primary endpoints.
The key secondary endpoints of the study were the mean changes in ferritin, hemoglobin and FGF-23 from baseline to the end of the 12-week treatment period versus placebo in the ITT group.

[2] = test system: serum phosphorus; experiment: Phase 3 trial in ESRD patients on dialysis (Example 1), 52-week Safety Assessment Period: serum phosphorus vs active control; assay type: in vivo, human; conditions: for Mean Serum Phosphorus / Mean Serum Phosphorus, % Change from Baseline / Mean Serum Phosphorus, Change from Baseline: Table B; for Serum Phosphorus, Mean / Serum Phosphorus, Median: Safety Assessment Period; for Serum Phosphorus, Mean / Serum Phosphorus, Median / Serum Phosphorus, LS Mean / Serum Phosphorus, Change from Baseline, Mean / Serum Phosphorus, Change from Baseline, Median / Serum Phosphorus, Treatment Differences, LS Mean (KRX-0502) − LS Mean (control): Table 13; for Serum Phosphorus, Change from Baseline, Mean / Serum Phosphorus, Change from Baseline, Median: Day 0 baseline
Protocol: This trial was a three-period, multicenter, safety and efficacy clinical trial.
Period 2 (Safety Assessment Period). […] Patients were followed on their randomized assignment for safety assessments over 52 weeks.
For patients randomized to the active-control group, the starting dose of phosphate binder was the last dose that was administered immediately prior to the start of the Washout Period (if the patient remained on the same phosphate binder) or at the discretion of the PI, guided by the package insert, if the patient changed binders. However, for patients whose previous dose of phosphate binder exceeded 12 pills/day, if randomized to the active-control group, their starting dose of active-control drug was at the discretion of the PI, but will not exceed 12 pills/day. Calcium acetate 667 mg capsules and sevelamer carbonate 800 mg tablets were used and were supplied by Keryx Biopharmaceuticals, Inc. (Keryx) for the duration of the trial.
Serum phosphorus and calcium were checked at Visit 5 (Week 1), and every two weeks during the first 12 weeks after Visit 4 (Randomization Visit), and monthly for the rest of the Safety Assessment Period. During the Efficacy Assessment Period, serum phosphorus and calcium were drawn weekly. These values guided study drug administration. While on study drug, the use of other phosphate binders was not permitted. […] The titration of calcium acetate and sevelamer carbonate throughout the 52-week Safety Assessment Period were according to the current package inserts for these agents and/or at the discretion of the site PI.
Serum phosphorus and calcium were performed at Screening (Visit 0); weekly during the Washout Period after Visit 1 (Week −2); at Visit 4 (Randomization Visit); at Visits 5 (Week 1), 6 (Week 2), 7 (Week 4), 8 (Week 6), 9 (Week 8), 10 (Week 10), 11 (Week 12), 12 (Week 16), 13 (Week 20), 14 (Week 24), 15 (Week 28), 16 (Week 32), 17 (Week 36), 18 (Week 40), 19 (Week 44), 20 (Week 48), and 21 (Week 52) of the 52-week Safety Assessment Period; and at Visits 22 (Week 53), 23 (Week 54), 24 (Week 55) and 25 (Week 56) of the Efficacy Assessment Period.
The efficacy analyses were based on Full Analysis (FA) population that consisted of all patients who took at least one dose of study medication and provided baseline and at least one post-baseline efficacy assessment. The safety analyses were based on safety population that was consistent of all patients who took at least one dose of study medication.
• 1. Change in serum phosphorus concentration at Weeks 12, 24, 36, 48, and 52 as compared to baseline (Visit 4). This variable will be analyzed using LOCF methodology. ANCOVA will be employed. The model will include treatment (fixed effect), and baseline (covariate).

## iron (+3), x (1, 2, 3-propanetricarboxylic acid, 2-hydroxy-), y (H2O) [KRX-0502]
[1]; Baseline, ITT group, n = 72
  Mean Ferritin, Baseline: 116 ng/mL
[1]; Week 12, last observation carried forward, ITT group, n = 72
  Mean Ferritin, End of Treatment (Week 12): 189 ng/mL
[1]; sample size assumption
  ending ferritin level at Visit 11 (Week 12): approximately 300 ng/mL
[2]; Baseline, N = 277
  Mean Serum Phosphorus: 7.4 mg/dL
[2]; Baseline, Table 12
  Phosphorus, Median: 7.20 mg/dL
[2]; Baseline, Table 12, vs sevelamer carbonate as a single agent
  Phosphorus, Mean: 7.39 mg/dL
[2]; Day 0 Baseline
  Serum Phosphorus, Mean: 7.39
  Serum Phosphorus, Median: 7.20
[2]; Table 12
  Phosphorus, Week 12 Change from Baseline, Mean: -2.01 mg/dL
  Phosphorus, Week 12 Change from Baseline, Median: -2.00 mg/dL
[2]; Week 12, ANCOVA, Day-0 baseline covariate, Table 12
  Phosphorus, LS Mean: 5.38 mg/dL
[2]; Week 12, ANCOVA
  Serum Phosphorus, LS Mean: 5.39
[2]; Week 12
  Serum Phosphorus, Change from Baseline, Mean: −2.01
  Serum Phosphorus, Change from Baseline, Median: −2.00
  Serum Phosphorus, Mean: 5.38
  Serum Phosphorus, Median: 5.10
  Serum Phosphorus, Treatment Differences, LS Mean (KRX-0502) − LS Mean (control): 0.07
  Mean Serum Phosphorus, % Change from Baseline: −27%
  Mean Serum Phosphorus, Change from Baseline: -2.0 mg/dL
[2]; Week 12, LOCF
  Mean Serum Phosphorus: 5.4 mg/dL
[2]; Week 12, Table 12
  Phosphorus, Mean: 5.38 mg/dL
  Phosphorus, Median: 5.10 mg/dL
[2]; Week 12, control = sevelamer carbonate as a single agent
  Phosphorus, Treatment Differences, LS Mean (KRX-0502) − LS Mean (Control): 0.16 mg/dL
[2]; Week 24, ANCOVA
  Serum Phosphorus, LS Mean: 5.26
[2]; Week 24
  Serum Phosphorus, Change from Baseline, Mean: −2.14
  Serum Phosphorus, Change from Baseline, Median: −2.10
  Serum Phosphorus, Mean: 5.24
  Serum Phosphorus, Median: 5.10
  Serum Phosphorus, Treatment Differences, LS Mean (KRX-0502) − LS Mean (control): −0.21
  Mean Serum Phosphorus, % Change from Baseline: −30%
  Mean Serum Phosphorus, Change from Baseline: -2.2 mg/dL
[2]; Week 24, LOCF
  Mean Serum Phosphorus: 5.2 mg/dL
[2]; Week 36, ANCOVA
  Serum Phosphorus, LS Mean: 5.24
[2]; Week 36
  Serum Phosphorus, Change from Baseline, Mean: −2.16
  Serum Phosphorus, Change from Baseline, Median: −2.10
  Serum Phosphorus, Mean: 5.22
  Serum Phosphorus, Median: 5.10
  Serum Phosphorus, Treatment Differences, LS Mean (KRX-0502) − LS Mean (control): −0.05
  Mean Serum Phosphorus, % Change from Baseline: −30%
  Mean Serum Phosphorus, Change from Baseline: -2.2 mg/dL
[2]; Week 36, LOCF
  Mean Serum Phosphorus: 5.2 mg/dL
[2]; Week 48, ANCOVA
  Serum Phosphorus, LS Mean: 5.33
[2]; Week 48
  Serum Phosphorus, Change from Baseline, Mean: −2.07
  Serum Phosphorus, Change from Baseline, Median: −2.10
  Serum Phosphorus, Mean: 5.32
  Serum Phosphorus, Median: 5.20
  Serum Phosphorus, Treatment Differences, LS Mean (KRX-0502) − LS Mean (control): −0.12
  Mean Serum Phosphorus, % Change from Baseline: −28%
  Mean Serum Phosphorus, Change from Baseline: -2.1 mg/dL
[2]; Week 48, LOCF
  Mean Serum Phosphorus: 5.3 mg/dL
[2]; Week 52, ANCOVA
  Serum Phosphorus, LS Mean: 5.33
[2]; Week 52
  Serum Phosphorus, Change from Baseline, Mean: −2.06
  Serum Phosphorus, Change from Baseline, Median: −2.20
  Serum Phosphorus, Mean: 5.32
  Serum Phosphorus, Median: 5.20
  Serum Phosphorus, Treatment Differences, LS Mean (KRX-0502) − LS Mean (control): −0.01
  Mean Serum Phosphorus, % Change from Baseline: −28%
  Mean Serum Phosphorus, Change from Baseline: -2.1 mg/dL
[2]; Week 52, LOCF
  Mean Serum Phosphorus: 5.3 mg/dL
